# Laboratory results published in US10696677B2 (Research Triangle Institute, priority 2016, dated 2020).
# Tested on: not given
# Assay: not given
# Settings: not given
row,Structure (SMILES),melting point [°C]
1,"Cn1ccc(-n2c(-c3ccccc3Cl)nc3c(N4CCC(NS(=O)(=O)c5ccc(F)c(F)c5)CC4)ncnc32)n1 [Compound 13, N-{1-[8-(2-Chlorophenyl)-9-(1-methyl-1H-pyrazol-3-yl)-9H-purin-6-yl]piperidin-4-yl}-3,4-difluorobenzene-1-sulfonamide]",206 to 208
2,"O=S(=O)(NC1CCN(c2ncnc3c2nc(-c2ccccc2Cl)n3-c2ccc(C(F)(F)F)nc2)CC1)c1ccc(F)c(F)c1 [Compound 10, N-{1-[8-(2-Chlorophenyl)-9-[6-(trifluoromethyl)pyridin-3-yl]-9H-purin-6-yl]piperidin-4-yl}-3,4-difluorobenzene-1-sulfonamide]",214 to 215
3,Cc1cc(NC(=O)N2CCN(c3ncnc4c3nc(-c3ccccc3Cl)n4-c3ccc(Cl)cc3)CC2)no1 [Compound 50],230 to 231
4,"Cc1c(CN2CCN(c3ncnc4c3nc(-c3ccccc3Cl)n4-c3ccc(Cl)cc3)CC2)cnn1C [Compound 114, 8-(2-Chlorophenyl)-9-(4-chlorophenyl)-6-{4-[(1,5-dimethyl-1H-pyrazol-4-yl)methyl]piperazin-1-yl}-9H-purine]",138 to 139
5,"N#Cc1ccccc1CN1CCN(c2ncnc3c2nc(-c2ccccc2Cl)n3-c2ccc(Cl)cc2)CC1 [Compound 75, 6-[4-(2-Cyanobenzyl)piperazin-1-yl]-8-(2-chlorophenyl)-9-(4-chlorophenyl)-9H-purine]",127 to 128
6,"Cc1cc(-n2c(-c3ccccc3Cl)nc3c(N4CCC(NS(=O)(=O)c5ccc(F)c(F)c5)CC4)ncnc32)no1 [Compound 11, N-{1-[8-(2-Chlorophenyl)-9-(5-methyl-1,2-oxazol-3-yl)-9H-purin-6-yl]piperidin-4-yl}-3,4-difluorobenzene-1-sulfonamide]",180 to 182
7,"O=S(=O)(NC1CCN(c2ncnc3c2nc(-c2ccccc2Cl)n3-c2ccc(Cl)cc2)CC1)c1ccc(F)c(F)c1 [Compound 7, N-{1-[8-(2-Chlorophenyl)-9-(4-chlorophenyl)-9H-purin-6-yl]piperidin-4-yl}-3,4-difluorobenzene-1-sulfonamide]",183 to 184
8,"FC(F)(F)c1ccccc1CN1CCN(c2ncnc3c2nc(-c2ccccc2Cl)n3-c2ccc(Cl)cc2)CC1 [Compound 111, 8-(2-Chlorophenyl)-9-(4-chlorophenyl)-6-{4-[2-(trifluoromethyl)benzyl]piperazin-1-yl}-9H-purine]",119 to 121

# Next, values leading:
row,melting point [°C],Structure (SMILES)
1,140 to 142,"O=C(Nc1ccc(C(F)(F)F)nc1)NC1CCN(c2ncnc3c2nc(-c2ccccc2Cl)n3-c2ccc(Cl)cc2)CC1 [Compound 24, 3-{1-[8-(2-Chlorophenyl)-9-(4-chlorophenyl)-9H-purin-6-yl]piperidin-4-yl}-1-[6-(trifluoromethyl)pyridin-3-yl]urea]"
2,175 to 177,CC1(NC(=O)NC2CCC(F)(F)CC2)CCN(c2ncnc3c2nc(-c2ccccc2Cl)n3-c2ccc(Cl)cc2)CC1
3,230 to 232,"O=C(NCC1CCCCC1)NC1CCN(c2ncnc3c2nc(-c2ccccc2Cl)n3-c2ccc(C(F)(F)F)nc2)CC1 [Compound 16, 3-{1-[8-(2-Chlorophenyl)-9-[6-(trifluoromethyl)pyridin-3-yl]-9H-purin-6-yl]piperidin-4-yl}-1-(cyclohexylmethyl)urea]"
4,135 to 137,"O=C(NCC1CCC(F)(F)CC1)NC1CCN(c2ncnc3c2nc(-c2ccccc2Cl)n3-c2ccc(Cl)cc2)CC1 [Compound 127, 3-{1-[8-(2-Chlorophenyl)-9-(4-chlorophenyl)-9H-purin-6-yl]piperidin-4-yl}-1-[(4,4-difluorocyclohexyl)methyl]urea]"
5,140 to 142,"O=C(Nc1ccc(F)cc1F)NC1CCN(c2ncnc3c2nc(-c2ccccc2Cl)n3-c2ccc(Cl)cc2)CC1 [Compound 22, 3-{1-[8-(2-Chlorophenyl)-9-(4-chlorophenyl)-9H-purin-6-yl]piperidin-4-yl}-1-(2,4-difluorophenyl)urea]"
6,141 to 143,"O=C(NCC1CCCCC1)NC1CCN(c2ncnc3c2nc(-c2ccccc2Cl)n3-c2ccc(OC(F)F)nc2)CC1 [Compound 17, 3-{1-[8-(2-Chlorophenyl)-9-[6-(difluoromethoxy)pyridin-3-yl]-9H-purin-6-yl]piperidin-4-yl}-1-(cyclohexylmethyl)urea]"
7,212 to 213,"O=S(=O)(NC1CCN(c2ncnc3c2nc(-c2ccccc2Cl)n3-c2ccc(OC(F)F)nc2)CC1)c1ccc(F)c(F)c1 [Compound 8, N-{1-[8-(2-Chlorophenyl)-9-[6-(difluoromethoxy)pyridin-3-yl]-9H-purin-6-yl]piperidin-4-yl}-3,4-difluorobenzene-1-sulfonamide]"
8,192 to 193,"CCCCC(=O)NC1CCN(c2ncnc3c2nc(-c2ccccc2Cl)n3-c2ccc(C(F)(F)F)nc2)CC1 [Compound 14, N-{1-[8-(2-Chlorophenyl)-9-[6-(trifluoromethyl)pyridin-3-yl]-9H-purin-6-yl]piperidin-4-yl}pentanamide]"
9,184 to 185,"O=C(NCc1ccc(F)cc1)NC1CCN(c2ncnc3c2nc(-c2ccccc2Cl)n3-c2ccc(Cl)cc2)CC1 [Compound 128, 3-{1-[8-(2-Chlorophenyl)-9-(4-chlorophenyl)-9H-purin-6-yl]piperidin-4-yl}-1-[(4-fluorophenyl)methyl]urea]"
10,160 to 162,"CC1(NC(=O)NC2CCN(c3ncnc4c3nc(-c3ccccc3Cl)n4-c3ccc(Cl)cc3)CC2)CCC(F)(F)CC1 [Compound 126, 3-{1-[8-(2-Chlorophenyl)-9-(4-chlorophenyl)-9H-purin-6-yl]piperidin-4-yl}-1-(4,4-difluoro-1-methylcyclohexyl)urea]"
11,227 to 228,"O=C(Nc1ccccc1F)NC1CCN(c2ncnc3c2nc(-c2ccccc2Cl)n3-c2ccc(C(F)(F)F)nc2)CC1 [Compound 20, 3-{1-[8-(2-Chlorophenyl)-9-[6-(trifluoromethyl)pyridin-3-yl]-9H-purin-6-yl]piperidin-4-yl}-1-(2-fluorophenyl)urea]"
12,228 to 229,"O=C(NC1CCN(c2ncnc3c2nc(-c2ccccc2Cl)n3-c2ccc(Cl)cc2)CC1)NC1CCC(F)(F)CC1 [Compound 124, 3-{1-[8-(2-Chlorophenyl)-9-(4-chlorophenyl)-9H-purin-6-yl]piperidin-4-yl}-1-(4,4-difluorocyclohexyl)urea]"
13,140 to 142,"O=C(Nc1ccccc1F)NC1CCN(c2ncnc3c2nc(-c2ccccc2Cl)n3-c2ccc(OC(F)F)nc2)CC1 [Compound 21, 3-{1-[8-(2-Chlorophenyl)-9-[6-(difluoromethoxy)pyridin-3-yl]-9H-purin-6-yl]piperidin-4-yl}-1-(2-fluorophenyl)urea]"

# Molecular target: hCB1 (Homo sapiens, UniProt P21554)
# Assay: radioligand displacement binding at CB1 (membranes of CHO-K1 cells over-expressing receptor)
# Settings: not given
# Sequence of hCB1 (P21554 whole entry): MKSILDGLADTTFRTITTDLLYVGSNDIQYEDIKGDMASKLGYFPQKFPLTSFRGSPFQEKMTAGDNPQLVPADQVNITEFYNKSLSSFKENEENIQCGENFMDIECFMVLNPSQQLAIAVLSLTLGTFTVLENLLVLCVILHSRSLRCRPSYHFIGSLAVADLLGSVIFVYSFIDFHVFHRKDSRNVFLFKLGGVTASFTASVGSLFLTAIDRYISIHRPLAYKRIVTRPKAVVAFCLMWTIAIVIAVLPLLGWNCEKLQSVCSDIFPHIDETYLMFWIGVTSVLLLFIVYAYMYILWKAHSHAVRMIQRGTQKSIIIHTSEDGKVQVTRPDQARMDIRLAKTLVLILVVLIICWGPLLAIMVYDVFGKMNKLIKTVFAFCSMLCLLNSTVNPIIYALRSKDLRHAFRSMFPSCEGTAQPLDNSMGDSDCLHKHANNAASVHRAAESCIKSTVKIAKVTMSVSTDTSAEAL
row,Ki [nM],Structure (SMILES)
1,3,"O/N=C(\c1ccc(F)cc1)C1CCN(c2ncnc3c2nc(-c2ccccc2Cl)n3-c2ccc(Cl)cc2)CC1 [Compound 28, (Z)-{1-[8-(2-chlorophenyl)-9-(4-chlorophenyl)-9H-purin-6-yl]piperidin-4-yl}(4-fluorophenyl)methanone oxime]"

# Same assay, conditions: read-out: Binding affinity (Ki) at hCB1; radioligand displacement, CHO-K1 membranes; average of 3-6 measurements
row,Structure (SMILES),Ki [nM]
1,"O=C(N1CCN(c2ncnc3c2nc(-c2ccccc2Cl)n3-c2ccc(Cl)cc2)CC1)C(F)(F)F [Compound 87, 8-(2-Chlorophenyl)-9-(4-chlorophenyl)-6-[4-(trifluoroacetyl)piperazin-1-yl]-9H-purine]",1

# Molecular target: hCB2 (Homo sapiens, UniProt P34972)
# Assay: radioligand displacement binding at CB2 ([3H]CP55940, membranes of CHO-K1 cells over-expressing receptor)
# Settings: not given
# Sequence of hCB2 (P34972 whole entry): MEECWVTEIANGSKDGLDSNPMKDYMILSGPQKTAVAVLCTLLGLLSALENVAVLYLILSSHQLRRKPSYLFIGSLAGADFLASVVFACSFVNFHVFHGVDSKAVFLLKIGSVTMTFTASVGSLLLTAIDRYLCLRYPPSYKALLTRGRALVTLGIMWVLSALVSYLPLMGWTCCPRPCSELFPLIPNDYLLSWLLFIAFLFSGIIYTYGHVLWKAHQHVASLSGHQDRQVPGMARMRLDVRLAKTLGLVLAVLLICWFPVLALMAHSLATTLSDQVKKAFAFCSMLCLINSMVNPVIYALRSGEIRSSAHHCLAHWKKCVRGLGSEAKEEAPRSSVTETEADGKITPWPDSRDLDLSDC
row,Ki [nM],Structure (SMILES)
1,> 6000,"N=C(Nc1ccc(F)cc1)N1CCN(c2ncnc3c2nc(-c2ccccc2Cl)n3-c2ccc(Cl)cc2)CC1 [Compound 116, 4-[8-(2-chlorophenyl)-9-(4-chlorophenyl)-9H-purin-6-yl]-N-(4-fluorophenyl)piperazine-1-carboximidamide]"
2,1250,"Cc1ccccc1CN1CCN(c2ncnc3c2nc(-c2ccccc2Cl)n3-c2ccc(Cl)cc2)CC1 [Compound 100, 8-(2-Chlorophenyl)-9-(4-chlorophenyl)-6-[4-(2-methylbenzyl)piperazin-1-yl]-9H-purine]"
3,3350,"CC(C)(C)OC(=O)N1CCN(c2ncnc3c2nc(-c2ccccc2Cl)n3-c2ccc(Cl)cc2)CC1 [Compound 58, tert-Butyl 4-[8-(2-Chlorophenyl)-9-(4-chlorophenyl)-9H-purin-6-yl]piperazine-1-carboxylate]"
4,11000,"O/N=C(\c1ccc(F)cc1)C1CCN(c2ncnc3c2nc(-c2ccccc2Cl)n3-c2ccc(Cl)cc2)CC1 [Compound 28, (Z)-{1-[8-(2-chlorophenyl)-9-(4-chlorophenyl)-9H-purin-6-yl]piperidin-4-yl}(4-fluorophenyl)methanone oxime]"

row,Structure (SMILES),Ki [nM]
1,"O=C(N1CCN(c2ncnc3c2nc(-c2ccccc2Cl)n3-c2ccc(Cl)cc2)CC1)C(F)(F)F [Compound 87, 8-(2-Chlorophenyl)-9-(4-chlorophenyl)-6-[4-(trifluoroacetyl)piperazin-1-yl]-9H-purine]",134

# Tested on: MDCK
# Assay: MDCK BBB Assay
# Format: in vitro ADME
# Settings: MDCK BBB assay
row,% Permeable [%],Structure (SMILES)
1,0,"COc1ccc(N2CCN(c3ncnc4c3nc(-c3ccccc3Cl)n4-c3ccc(Cl)cc3)CC2)cc1 [Compound 72, 8-(2-Chlorophenyl)-9-(4-chlorophenyl)-6-[4-(4-methoxyphenyl)piperazin-1-yl]-9H-purine]"
2,0,"O=C(Nc1ccccc1)NC1CCN(c2ncnc3c2nc(-c2ccccc2Cl)n3-c2ccc(Cl)cc2)CC1 [Compound 18, 3-{1-[8-(2-Chlorophenyl)-9-(4-chlorophenyl)-9H-purin-6-yl]piperidin-4-yl}-1-phenylurea]"
3,0,"Clc1ccc(-n2c(-c3ccccc3Cl)nc3c(N4CCN(c5ccccn5)CC4)ncnc32)cc1 [Compound 67, 8-(2-Chlorophenyl)-9-(4-chlorophenyl)-6-(4-pyridin-2-ylpiperazin-1-yl)-9H-purine]"
4,3,"CC(C)(C)OC(=O)N1CCN(c2ncnc3c2nc(-c2ccccc2Cl)n3-c2ccc(Cl)cc2)CC1 [Compound 58, tert-Butyl 4-[8-(2-Chlorophenyl)-9-(4-chlorophenyl)-9H-purin-6-yl]piperazine-1-carboxylate]"
5,0,"N#Cc1ccccc1N1CCN(c2ncnc3c2nc(-c2ccccc2Cl)n3-c2ccc(Cl)cc2)CC1 [Compound 74, 2-{4-[8-(2-Chlorophenyl)-9-(4-chlorophenyl)-9H-purin-6-yl]piperazin-1-yl}benzonitrile]"
6,~100,"Clc1ccc(CN2CCN(c3ncnc4c3nc(-c3ccccc3Cl)n4-c3ccc(Cl)cc3)CC2)cc1 [Compound 77, 6-[4-(4-Chlorobenzyl)piperazin-1-yl]-8-(2-chlorophenyl)-9-(4-chlorophenyl)-9H-purine]"
7,0,"O=S(=O)(NC1CCN(c2ncnc3c2nc(-c2ccccc2Cl)n3-c2ccc(Cl)cc2)CC1)c1ccc(F)c(F)c1 [Compound 7, N-{1-[8-(2-Chlorophenyl)-9-(4-chlorophenyl)-9H-purin-6-yl]piperidin-4-yl}-3,4-difluorobenzene-1-sulfonamide]"

row,Structure (SMILES),% Permeable [%]
1,"O=C(N1CCN(c2ncnc3c2nc(-c2ccccc2Cl)n3-c2ccc(Cl)cc2)CC1)C(F)(F)F [Compound 87, 8-(2-Chlorophenyl)-9-(4-chlorophenyl)-6-[4-(trifluoroacetyl)piperazin-1-yl]-9H-purine]",~100

# Same assay, conditions: MDCK cells
row,MDCK BBB Assay (Basolateral/Apical Peak Area Ratio) Mean,Structure (SMILES)
1,0,"O=S(=O)(NC1CCN(c2ncnc3c2nc(-c2ccccc2Cl)n3-c2ccc(Cl)cc2)CC1)c1ccc(F)c(F)c1 [Compound 7, N-{1-[8-(2-Chlorophenyl)-9-(4-chlorophenyl)-9H-purin-6-yl]piperidin-4-yl}-3,4-difluorobenzene-1-sulfonamide]"
